According to patent US6472384B1, “Antimicrobial compounds” (Sankyo Company, Limited, priority 1998, dated 2002):
Converted amounts (≈) assume the structure as drawn.

What was measured:
[1] = test system: Mycobacterium smegmatis Strain SANK 75075; assay: Minimum inhibitory concentration against Mycobacterium smegmatis (agar plate dilution); type: cell-based; conditions: Mycolicibacterium smegmatis; Mycobacterium smegmatis SANK 75075; nutrient agar containing 5% glycerol; 37° C. for 18 hours
Description: The minimum inhibitory concentration of preferred compounds of the invention against Mycobacterium smegmatis Strain SANK 75075 was determined in accordance with the process described below. The concentration of the compound to be tested was set at four stages by four-fold dilution starting from 1000 μg/ml (1000 μg/ml, 250 μg/ml, 62 μg/ml and 15 μg/ml). A 1 ml portion of the diluted sample of each stage was poured into a Petri dish (“Terumo Petri dish”, 90×20 mm). A nutrient agar medium (9 ml, product of Eiken Chemical) containing 5% glycerol was added and they were mixed to prepare a plate medium. A test microorganism Mycobacterium smegmatis SANK 75075 was precultured overnight at 37° C. on a trypto-soy broth (T.S.B) medium (product of Eiken Chemical) containing 5% glycerol. On the testing day, the microorganism solution was diluted 100-fold with T.S.B. and one loopful of the diluted culture was streaked onto the plate medium. After cultivation at 37° C. for 18 hours, the minimum concentration (MIC) of the test substance inhibiting the growth of the microorganism was determined.

[2] = Solubility (physico-chemical properties); type: physicochemical
[3] = test system: Mycobacterium smegmatis SANK 75075; assay: Disk assay against Mycobacterium smegmatis; type: cell-based; conditions: Mycolicibacterium smegmatis, SANK75075, 40 μg of test substance per paper disk of 8 mm, read-out: inhibitory zone (circle) diameter
Source text: Compound A-500359E, Compound A-500359F, the amide derivative of Compound A-500359F, Compound A-500359H, Compound A-500359J and Compound A-500359M-3 of the present invention thus available are novel compounds which have not been described in the literature. Their growth inhibitory activity against general gram positive bacteria or gram negative bacteria can be determined by the disk assay method using normal agar medium (product of Eiken Chemical) or heart infusion agar medium (product of Difco Laboratories). Growth inhibitory activity against Mycobacteria, gram positive bacteria belonging to the Actinonycetales, can be determined similarly on the above-described medium added further with glycerin.
So-called disk assay was conducted using 40 μg of a test substance per paper disk of 8 mm.
So-called Disk assay (“Experimental Agricultural Chemistry”. ed. by Agricultural Chemistry Class/Agriculture Dept./Tokyo Univ., 3rd edition, Volume II, published by Asakura Shoten in 1978) was conducted using 40 μg of a test substance per paper disk of 8 mm.

[4] = test system: Mycobacterium avium Strain NIHJ1605; assay: Minimum inhibitory concentration against Mycobacterium avium (broth dilution); type: cell-based; conditions: NIHJ1605, 144 h; Mycobacterium avium NIHJ 1605; Middleblook 7H9 broth; aerobic culture at 37° C. for 6 days

Compound | MIC [1] [µg/mL] | Solubility in chloroform [2] | Solubility in methanol [2] | Solubility in normal hexane [2] | Solubility in water [2] | zone of inhibition at 40 µg/disc [3] [mm] | MIC [4] [µg/mL]
CCCCCCC(=O)O[C@@H]1[C@@H](O[C@@H](C(N)=O)[C@H]2O[C@@H](n3ccc(=O)[nH]c3=O)[C@H](O)[C@@H]2OC)OC(C(=O)N[C@H]2CCCCNC2=O)=C[C@@H]1OC(=O)CCCCCC [Exemp. Compound No. 280] | 3.1 (≈ 3.9 µM) | – | – | – | – | – | –
CCCCCCCCCCCCCCCC(=O)O[C@@H]1[C@H](OC)[C@@H]([C@@H](O[C@H]2OC(C(=O)N[C@H]3CCC[C@@H](C)NC3=O)=C[C@H](O)[C@@H]2O)C(N)=O)O[C@H]1n1ccc(=O)[nH]c1=O [Exemp. Compound No. 11] | 6.2 (≈ 7.54 µM) | – | – | – | – | – | –
COC1C(O)C(n2ccc(=O)[nH]c2=O)OC1C(OC1OC(C(=O)O)=CC(O)C1O)C(N)=O (stereo not drawn) [A-500359F] | – | insoluble | slightly soluble | insoluble | soluble | – | –
CCCCCCCCCCCCCCCC(=O)O[C@H]1C=C(C(=O)N[C@H]2CCCCNC2=O)O[C@H](O[C@@H](C(N)=O)[C@H]2O[C@@H](n3ccc(=O)[nH]c3=O)[C@H](O)[C@@H]2OC)[C@H]1O [Exemp. Compound No. 135] | 1.5 (≈ 1.86 µM) | – | – | – | – | – | –
CO[C@H]1[C@@H](OC(=O)CC(c2ccccc2)c2ccccc2)[C@H](n2ccc(=O)[nH]c2=O)O[C@@H]1[C@@H](O[C@H]1OC(C(=O)N[C@H]2CCC[C@@H](C)NC2=O)=C[C@H](O)[C@@H]1O)C(N)=O [Exemp. Compound No. 21] | 6.2 (≈ 7.83 µM) | – | – | – | – | – | –
COC1C(O)C(n2ccc(=O)[nH]c2=O)OC1C(OC1OC(C(N)=O)=CC(O)C1O)C(N)=O (stereo not drawn) [amide derivative of compound A-500359F] | – | insoluble | slightly soluble | insoluble | soluble | 12 | –
C=CCC(NC(=O)C1=CC(O)C(O)C(OC(C(N)=O)C2OC(n3ccc(=O)[nH]c3=O)C(O)C2OC)O1)C(=O)O (stereo not drawn) [A-500359M-3] | – | insoluble | soluble | insoluble | soluble | 12 | –
COC(=O)C1=CC(O)C(O)C(OC(C(N)=O)C2OC(n3ccc(=O)[nH]c3=O)C(O)C2OC)O1 (stereo not drawn) [A-500359E] | – | insoluble | slightly soluble | insoluble | soluble | 12 | –
CCCCCCCCCC(=O)O[C@@H]1[C@H](OC)[C@@H]([C@@H](O[C@H]2OC(C(=O)N[C@H]3CCC[C@@H](C)NC3=O)=C[C@H](O)[C@@H]2O)C(N)=O)O[C@H]1n1ccc(=O)[nH]c1=O [Exemp. Compound No. 7] | 6.2 (≈ 8.4 µM) | – | – | – | – | – | –
CCCCCCCCC(=O)O[C@@H]1[C@H](OC)[C@@H]([C@@H](O[C@H]2OC(C(=O)N[C@H]3CCC[C@@H](C)NC3=O)=C[C@H](O)[C@@H]2O)C(N)=O)O[C@H]1n1ccc(=O)[nH]c1=O [Exemp. Compound No. 6] | 3.1 (≈ 4.28 µM) | – | – | – | – | – | –
NC(=O)C(OC1OC(C(=O)O)C(O)C(O)C1O)C1OC(n2ccc(=O)[nH]c2=O)C(O)C1O (stereo not drawn) [A-500359J] | – | insoluble | slightly soluble | insoluble | soluble | – | –
NC(=O)C(OC1OC(C(=O)O)=CC(O)C1O)C1OC(n2ccc(=O)[nH]c2=O)C(O)C1O (stereo not drawn) [A-500359H] | – | insoluble | slightly soluble | insoluble | soluble | – | –
CO[C@H]1[C@@H](O)[C@H](n2ccc(=O)[nH]c2=O)O[C@@H]1[C@@H](O[C@H]1OC(C(=O)N[C@H]2CCCCNC2=O)=C[C@H](O)[C@@H]1O)C(N)=O [Capuramycin, capuramycin, reference compound] | 12.5 (≈ 21.9 µM) | – | – | – | – | – | 8 (≈ 14 µM)
CCCCCCCCCCCCCCCC(=O)O[C@@H]1[C@H](OC)[C@@H]([C@@H](O[C@H]2OC(C(=O)N[C@H]3CCCCNC3=O)=C[C@H](O)[C@@H]2O)C(N)=O)O[C@H]1n1ccc(=O)[nH]c1=O [Exemp. Compound No. 53] | 6.2 (≈ 7.67 µM) | – | – | – | – | – | –
